From ChEMBL document CHEMBL1150311, “4-Methyl-5-phenyl triazoles as selective inhibitors of 11beta-hydroxysteroid dehydrogenase type I” (Bioorg Med Chem Lett, 2008)
pEC50, pIC50: −log10 of the molar value.

Legend:
[1] = biological target: T1, 11-beta-hydroxysteroid dehydrogenase type 2 (Mus musculus, UniProt P51661); assay: Inhibition of mouse 11beta HSD2
T1 sequence (P51661 whole entry): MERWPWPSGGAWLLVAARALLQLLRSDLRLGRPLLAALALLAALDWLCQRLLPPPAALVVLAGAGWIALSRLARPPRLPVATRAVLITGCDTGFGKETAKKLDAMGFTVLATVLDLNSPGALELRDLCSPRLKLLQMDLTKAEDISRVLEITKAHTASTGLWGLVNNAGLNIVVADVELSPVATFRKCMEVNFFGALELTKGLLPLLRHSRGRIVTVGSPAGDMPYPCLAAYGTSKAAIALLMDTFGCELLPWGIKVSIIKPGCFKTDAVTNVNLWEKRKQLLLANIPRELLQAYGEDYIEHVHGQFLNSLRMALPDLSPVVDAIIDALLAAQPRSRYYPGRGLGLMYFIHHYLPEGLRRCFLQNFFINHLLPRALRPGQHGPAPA

[2] = biological target: T2, Nuclear receptor subfamily 1 group I member 2 (Homo sapiens, UniProt O75469); assay: Agonist activity at human PXR; assay type: functional
T2 sequence (O75469 whole entry): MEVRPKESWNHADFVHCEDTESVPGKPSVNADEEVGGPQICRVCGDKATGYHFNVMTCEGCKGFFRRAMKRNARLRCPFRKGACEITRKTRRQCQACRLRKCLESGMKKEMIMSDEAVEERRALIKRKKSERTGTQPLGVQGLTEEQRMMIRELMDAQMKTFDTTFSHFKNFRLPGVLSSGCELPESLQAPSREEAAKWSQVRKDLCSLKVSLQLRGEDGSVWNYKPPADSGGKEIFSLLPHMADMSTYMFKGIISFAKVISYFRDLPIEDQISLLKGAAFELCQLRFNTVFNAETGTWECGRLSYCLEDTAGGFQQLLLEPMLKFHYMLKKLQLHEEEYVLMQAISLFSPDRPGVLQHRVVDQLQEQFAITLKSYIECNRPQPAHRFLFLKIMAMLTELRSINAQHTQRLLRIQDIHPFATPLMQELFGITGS

[3] = biological target: T3, 11-beta-hydroxysteroid dehydrogenase type 2 (Homo sapiens, UniProt P80365); assay: Inhibition of human 11beta HSD2
T3 sequence (P80365 whole entry): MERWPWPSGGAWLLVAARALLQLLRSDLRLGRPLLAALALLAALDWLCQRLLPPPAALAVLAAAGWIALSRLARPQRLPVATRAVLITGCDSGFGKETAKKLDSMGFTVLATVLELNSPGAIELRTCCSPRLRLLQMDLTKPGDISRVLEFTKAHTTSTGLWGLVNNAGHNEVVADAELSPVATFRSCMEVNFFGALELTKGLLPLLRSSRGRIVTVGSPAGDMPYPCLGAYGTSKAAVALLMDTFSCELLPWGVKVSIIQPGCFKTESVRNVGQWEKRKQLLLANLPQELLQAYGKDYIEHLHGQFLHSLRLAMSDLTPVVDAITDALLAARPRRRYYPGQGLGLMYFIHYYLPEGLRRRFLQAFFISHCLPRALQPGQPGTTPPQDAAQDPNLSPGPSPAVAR

[4] = biological target: T2, Nuclear receptor subfamily 1 group I member 2; assay: Agonist activity at human PXR at 10 uM; assay type: functional
[5] = biological target: 11-beta-hydroxysteroid dehydrogenase 1 (Mus musculus, UniProt P50172); assay: Inhibition of mouse 11beta HSD1 by SPA assay
Mus musculus [6] = assay: Inhibition of [3H]cortisone to [3H]cortisol conversion in mouse at 10 mg/kg, po administered as single dose after 16 hrs; assay type: functional
Mus musculus [7] = assay: Inhibition of [3H]cortisone to [3H]cortisol conversion in mouse at 10 mg/kg, po administered as single dose after 4 hrs; assay type: functional
[8] = biological target: 11-beta-hydroxysteroid dehydrogenase 1 (Homo sapiens, UniProt P28845); assay: Inhibition of human 11beta HSD1 by SPA assay
[9] = biological target: T4, 11-beta-hydroxysteroid dehydrogenase type 2 (Homo sapiens) (UniProt P80365); conditions: at 4 µM
T4 sequence (whole entry): T3 sequence (P80365 whole entry)
Description: Inhibition of human 11beta HSD2 at 4 uM

Mus musculus [10] = assay: Inhibition of [3H]cortisone to [3H]cortisol conversion in mouse at 10 mg/kg, po administered as single dose after 1 hr; assay type: functional

Chain of 11-beta-hydroxysteroid dehydrogenase 1 (Homo sapiens, UniProt P28845) (P28845 whole entry): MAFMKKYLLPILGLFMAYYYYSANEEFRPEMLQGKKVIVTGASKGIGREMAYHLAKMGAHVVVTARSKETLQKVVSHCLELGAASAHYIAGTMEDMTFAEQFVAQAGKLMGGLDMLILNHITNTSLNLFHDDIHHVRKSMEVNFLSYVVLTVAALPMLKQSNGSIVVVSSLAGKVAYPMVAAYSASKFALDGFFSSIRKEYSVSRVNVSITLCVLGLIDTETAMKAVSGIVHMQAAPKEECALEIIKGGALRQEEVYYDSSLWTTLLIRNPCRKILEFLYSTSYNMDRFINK
Chain of 11-beta-hydroxysteroid dehydrogenase 1 (Mus musculus, UniProt P50172) (P50172 whole entry): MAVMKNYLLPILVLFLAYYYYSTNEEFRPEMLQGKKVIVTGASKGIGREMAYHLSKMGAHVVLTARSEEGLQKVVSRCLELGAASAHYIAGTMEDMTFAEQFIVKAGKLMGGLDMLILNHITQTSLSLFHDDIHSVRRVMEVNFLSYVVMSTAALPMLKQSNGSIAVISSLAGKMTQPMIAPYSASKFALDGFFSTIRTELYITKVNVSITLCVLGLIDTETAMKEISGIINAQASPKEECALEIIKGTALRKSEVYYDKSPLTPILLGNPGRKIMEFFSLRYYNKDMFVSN

Compound | pIC50 [1] | pEC50 [2] | pIC50 [3] | Activity [4] [%] | pIC50 [5] | inhibition in vivo at 10 mg/kg (Mus musculus [6]) [%] | inhibition in vivo at 10 mg/kg (Mus musculus [7]) [%] | pIC50 [8] | inhibition [9] [%] | inhibition in vivo at 10 mg/kg (Mus musculus [10]) [%]
Cn1c(-c2ccc(-c3ccc(S(C)(=O)=O)cc3)cc2Cl)nnc1C1(c2ccc(Cl)cc2)CCC1 | < 5.40 | < 4.60 | < 5.40 | 2 | 8.92 | -5 | 20 | 8.77 | – | –
Cc1cn(-c2ccc(-c3nnc(C4(c5ccc(Cl)cc5)CCC4)n3C)c(Cl)c2)c(C2CC2)n1 | < 5.40 | 5.89 | – | 13 | 8.22 | 7 | 60 | 8.01 | – | –
CCS(=O)(=O)c1ccccc1-c1ccc(-c2nnc(C3(c4ccc(Cl)cc4)CCC3)n2C)c(Cl)c1 | < 5.40 | 6.15 | < 5.40 | 74 | 8.92 | 6 | 56 | 9.01 | – | –
CCSc1ccccc1-c1ccc(-c2nnc(C3(c4ccc(Cl)cc4)CCC3)n2C)c(Cl)c1 | < 5.40 | 5.77 | – | 48 | 8.33 | 1 | 51 | 7.96 | 54 | –
Cn1c(-c2ccc(-c3cccnc3)cc2Cl)nnc1C1(c2ccc(Cl)cc2)CCC1 | < 5.40 | 5.44 | – | 35 | 8.89 | 26 | 100 | 9.00 | – | –
CCS(=O)(=O)c1cccc(-c2ccc(-c3nnc(C4(c5ccc(Cl)cc5)CCC4)n3C)c(Cl)c2)c1 | < 5.40 | 4.60 | – | -31 | 9.01 | 29 | 93 | 9.01 | 59 | –
Cn1c(-c2ccc(-c3cccc(S(C)(=O)=O)c3)cc2Cl)nnc1C1(c2ccc(Cl)cc2)CCC1 | < 5.40 | < 4.60 | < 5.40 | -5 | 9.01 | 36 | 96 | 9.01 | – | –
Cn1c(-c2ccc(-c3ccncc3)cc2Cl)nnc1C1(c2ccc(Cl)cc2)CCC1 | < 5.40 | 5.11 | – | 42 | 8.70 | 8 | 39 | 9.00 | – | –
Cn1c(-c2ccc(-n3ccnc3S(C)(=O)=O)cc2Cl)nnc1C1(c2ccc(Cl)cc2)CCC1 | < 5.40 | 5.10 | – | 23 | 8.03 | – | – | 7.85 | – | –
CCS(=O)(=O)c1ccc(-c2ccc(-c3nnc(C4(c5ccc(Cl)cc5)CCC4)n3C)c(Cl)c2)cc1 | < 5.40 | < 4.60 | – | -8 | 9.01 | 16 | 71 | 8.68 | 75 | –
Cn1c(-c2ccc(-n3ccnc3)cc2Cl)nnc1C1(c2ccc(Cl)cc2)CCC1 | < 5.40 | 4.92 | – | 21 | 8.55 | 10 | 78 | 9.00 | – | –
Cn1c(-c2ccc(-n3ccnc3C(F)(F)F)cc2Cl)nnc1C1(c2ccc(Cl)cc2)CCC1 | < 5.40 | 5.49 | – | 24 | 9.02 | 20 | 58 | 9.01 | – | –
Cn1c(-c2ccc(-c3ccccn3)cc2Cl)nnc1C1(c2ccc(Cl)cc2)CCC1 | < 5.40 | 5.62 | – | 98 | 8.85 | -5 | 41 | 9.00 | – | –
Cn1c(-c2cccc(Cl)c2)nnc1C1(c2ccc(Cl)cc2)CCC1 | < 5.40 | – | < 5.40 | – | 7.47 | – | 12 | 9.00 | – | 24
Cn1c(-c2ccc(-c3ccccc3)cc2Cl)nnc1C1(c2ccc(Cl)cc2)CCC1 | – | 5.77 | – | – | 8.85 | 85 | 99 | 9.00 | – | –
Cc1nccn1-c1ccc(-c2nnc(C3(c4ccc(Cl)cc4)CCC3)n2C)c(Cl)c1 | < 5.40 | < 4.60 | – | 22 | 8.02 | – | – | 8.59 | – | –
